Drawing on US5449667A, “Amidothiophosphate derivative and insecticide, nematocide and acaricide containing the same as active ingredient” (priority 1993, dated 1995), this text covers Activity and mortality for 15 compounds.

Common to all, as to format: in vivo
One assay has as its system Tetranychus cinnabarinus. Description: Activity against Tetranychus cinnabarinus. Conditions: 500 ppm, 15 ml spray plus 2 ml soil injection, kidney bean, after eight days. The arrangement: key: -: substantially no damage; +: little damage; ++: heavy damage. The method, then: Biological Test 8 Activity Against Tetranychus cinnabarinus
Ten male mites (Tetranychus cinnabarinus) per leaf were placed on a pot-planted kidney bean (Phasseolus vulgaris: seven days after sowing) and kept in a thermostatic chamber. After six days, 15 ml of a 500 ppm aqueous solution obtained by diluting each emulsifiable concentrate of each of the present compounds according to the formulation example 1 was sprayed in a pot simultaneously with injection of 2 ml of the solution into soil. After eight days, damage to the plant by Tetranychus cinnabarinus was evaluated according to the following criteria:
-: substantially no damage

For another assay, the system named is Blattella germanica. Description: Insecticidal activity against Blattella germanica. The following applies: 24 h, 0.7 ml of 500 ppm on filter paper, ten male cockroaches, after one day. The method, then: Biological Test 3 Insecticidal Avtivity Against Blattella germanica
Filter paper of 5.5 cm in diameter was laid in the bottom of a polyethylene cup (diameter: 5.5 cm). After 0.7 ml of a 500 ppm aqueous solution obtained by diluting each emulsifiable concentrate prepared from each of the present compounds according to the formulation example 1 was dropped on the filter paper and approximately 30 mg of sucrose was uniformly scattered and put on the filter paper as bait, ten male cockroaches (Blattella germanica) were left in the cup with a cover. After one day, the mortality was examined for the cockroaches.

The subject of the next assay is root-knot nematodes. Kind of assay: Activity against root-knot nematodes. The arrangement: key: -: substantially no root knots; +: several to ten odds root knots; ++: larger number of root knots (heavier damage than +). The following applies: 25 ppm active ingredient in soil, tomato root, after four weeks. The method, then:
Biological Test 6 Activity Against Root-knot Nematodes
One ml of a 500 ppm aqueous solution of each of the present compounds obtained by diluting each emulsifiable concentrate prepared from each of the present compounds according to the formulation example 1 was mixed with 19 g of soil contaminated with root-knot nematodes (concentration of active ingredient in soil: 25 ppm). After the soil was kept at 27° C. for 24 hours, the root of a tomato plant (approximately two weeks after sprouting) in a cup was covered with the soil and some water was given to the plant. After four weeks, damage to the root of the tomato plant was evaluated according to the following criteria:
-: substantially no root knots
+: several to ten odds root knots
++: larger number of root knots (heavier damage than +)

The subject of assay [1] is larvae of Diabrotica undecimpunctata. Description: Insecticidal activity against larvae of Diabrotica undecimpunctata. Conditions: 1 ml of 50 ppm on filter paper, approximately thirty eggs, after eight days. The method, then: Biological Text 5 Insecticidal Activity Against Larvae of Diabrotica undecimpunctata
Filter paper of 5.5 cm in diameter was laid in the bottom of a polyethylene cup (diameter: 5.5 cm). After 1 ml of a 50 ppm aqueous solution obtained by diluting each of the emulsifiable concentrate prepared from each of the present compounds according to the formulation example 1 was dropped on the filter paper and one sprouting corn crop was placed as bait on the paper, approximately thirty eggs of Diabrotica undecimpunctata were left on the filter paper. After eight days, the rate of hatched larvae was examined. The activity were evaluated according to the following criteria:
B: Mortality not less than 90% but less than 100%
C: Mortality less than 90%

In assay [2] the test system is larvae of Spodoptera litura. Kind of assay: Insecticidal activity against larvae of Spodoptera litura. Conditions: 144 h, 4-instar larvae, artificial bait, after six days. The method, then:
Biological Test 1 Insecticidal Activity Against Larvae of Spodoptera litura
Emulsifiable concentrates were prepared for each of the present compounds according to the formulation example 1. Thirteen grams of artificial bait for Spodoptera litura were placed in a polyethylene cup (diameter: 11 cm) and impregnated with 2 ml of the emulsifiable concentrate diluted with water (500 ppm). Ten 4-instar larvae of Spodoptera litura were put in the polyethylene cup. After six days, the mortality of the larvae was examined.

Assay [3] has as its system larvae of Culex pipiens pallens. Description: Insecticidal activity against larvae of Culex pipiens pallens. The following applies: 3.5 ppm active ingredient in water, twenty last-instar larvae, after one day. How it is done: Biological Test 7 Insecticidal Activity Against Larvae of Culex pipiens pallens
Each of emulsifiable concentrates prepared from each of the present compounds according to the formulation example 1 was diluted with water, and 0.7 ml of the diluted solution was added to 100 ml of ion-exchanged water (concentration of active ingredient: 3.5 ppm). Twenty last-instar larvae of Culex pipiens pallens were left in the water. After one day, the activity was evaluated according to the following criteria:
A: Mortality not less than 90%
B: Mortality not less than 10% but less than 90%
C: Mortality less than 10%

Another assay concerns Musca domestica. Description: Insecticidal activity against Musca domestica. Conditions: 24 h, 0.7 ml of 500 ppm on filter paper, ten female house flies, after one day. How it is done: Biological Test 4 Insecticidal Activity Against Musca domestica
Filter paper of 5.5 cm in diameter was laid in the bottom of a polyethylene cup (diameter: 5.5 cm). After 0.7 ml of a 500 ppm aqueous solution obtained by diluting each emulsifiable concentrate prepared from each of the present compounds according to the formulation example 1 was dropped on the filter paper and approximately 30 mg of sucrose was uniformly scattered, and put on the filter paper as bait, ten female house flies (Musca domestica) were left in the cup with a cover. After one day, the mortality was examined for the flies.

Assay [4] deals with larvae of Nilaparvata lugens. Description: Insecticidal activity against larvae of Nilaparvata lugens. The following applies: 500 ppm aqueous solution, rice stalk dip, approximately 30 larvae, after six days. The method, then: Biological Test 2 Insecticidal Activity Against Larvae of Nilaparvata lugens
A stalk of a rice plant was dipped for one minute in a 500 ppm aqueous solution obtained by diluting each emulsifiable concentrate prepared from each of the present compounds according to the formulation example 1 and then air-dried. The rice plant stalk was placed in a polyethylene cup (diameter: 5.5 cm) where filter paper (diameter: 5.5 cm) impregnated with 1 ml of water was put. Approximately 30 larvae of Nilaparvata lugens were put in the polyethylene cup. After six days, the activity was evaluated according to the following criteria:
B: the number of the living larvae is not greater than 5
C: the number of the living larvae is 6 or more

For `CCOC(=O)N(CC#N)P(=O)(OCC)SC(C)CC` (centres unmarked) [Compound 10], the Activity entry with Tetranychus cinnabarinus is “-”; in the assay with root-knot nematodes it was “-”; in assay [1], “A (Mortality 100%)”; in assay [3], “A (Mortality not less than 90%)”. In addition, the mortality at 500 ppm (with Blattella germanica; in assay [2]; with Musca domestica) was 100% throughout.

In the case of `CCC(C)SP(=O)(OC)N(CC#N)C(=O)Oc1ccccc1` (centres unmarked) [Compound 15], the Activity entry in the assay on Tetranychus cinnabarinus is recorded as “-”.

As to `CCOP(=O)(SC(C)CC)N(CC#N)C(=O)c1ccccc1` (centres unmarked) [Compound 16], the Activity entry in the assay with Tetranychus cinnabarinus is “-”; in assay [4] it was “A (no living larvae)”; with root-knot nematodes, “-”; in assay [1] it was “A (Mortality 100%)”; in assay [3], “A (Mortality not less than 90%)”. For the same compound, the mortality at 500 ppm (in the assay with Blattella germanica; in assay [2]; in the assay with Musca domestica) was 100% throughout.

`CCOP(=O)(SC(C)CC)N(CC#N)C(=O)OCC(C)C` (centres unmarked) [Compound 18]: the Activity entry in the assay with Tetranychus cinnabarinus is “-”; in assay [4], “A (no living larvae)”; in the assay on root-knot nematodes it was “-”; in assay [1], “A (Mortality 100%)”; in assay [3], “A (Mortality not less than 90%)”. Further, the mortality at 500 ppm (with Blattella germanica; in assay [2]; with Musca domestica) was 100% throughout.

With `CCCSP(=O)(OC)N(CCC#N)C(=O)SC` (centres unmarked) [Compound 5], the Activity entry in the assay with Tetranychus cinnabarinus is “-”; with root-knot nematodes, “-”; in assay [1], “A (Mortality 100%)”. The mortality at 500 ppm (in assay [2]; with Musca domestica) was 100% throughout.

For the compound `CCCSP(=O)(OC)N(CC#N)C(=O)OC` (centres unmarked) [Compound 1], the Activity result with Tetranychus cinnabarinus is given as “-”; in assay [4] it was “A (no living larvae)”; in the assay on root-knot nematodes it was “-”; in assay [1], “A (Mortality 100%)”; in assay [3], “A (Mortality not less than 90%)”. Moreover, the mortality at 500 ppm (in the assay with Blattella germanica; in assay [2]; with Musca domestica) was 100% throughout.

With `CCCSP(=O)(OCC)N(CC#N)C(=O)OC` (centres unmarked) [Compound 7], the Activity entry is “-” in the assay on Tetranychus cinnabarinus; “A (no living larvae)” in assay [4]; “-” in the assay with root-knot nematodes; “A (Mortality 100%)” in assay [1]; “A (Mortality not less than 90%)” in assay [3]. In addition, the mortality at 500 ppm (in the assay with Blattella germanica; in assay [2]; with Musca domestica) was 100% in each case.

In the case of `CCCSC(=O)N(CC#N)P(=O)(OCC)SC(C)CC` (centres unmarked) [Compound 12], the Activity entry is “-” with Tetranychus cinnabarinus, “-” in the assay on root-knot nematodes, “A (Mortality 100%)” in assay [1] and “A (Mortality not less than 90%)” in assay [3]. The mortality at 500 ppm (in the assay with Blattella germanica; in assay [2]; in the assay with Musca domestica) was 100% each time.

Turning to `CCOP(=O)(SC(C)CC)N(CC#N)C(=O)OC(C)C` (centres unmarked) [Compound 17], the Activity entry is recorded as “-” with Tetranychus cinnabarinus; “A (no living larvae)” in assay [4]; “-” in the assay on root-knot nematodes; “A (Mortality 100%)” in assay [1]; “A (Mortality not less than 90%)” in assay [3]. Moreover, the mortality at 500 ppm (in the assay with Blattella germanica; in assay [2]; with Musca domestica) was 100% throughout.

Consider `CCOP(=O)(SC(C)CC)N(CC#N)C(=O)Oc1ccccc1` (centres unmarked) [Compound 14, O-ethyl S-sec-butyl N-cyanomethyl N-phenoxycarbonyl phosphoroamidothiolate], for which the Activity result with Tetranychus cinnabarinus is on record as “-”; in assay [4], “A (no living larvae)”; in the assay on root-knot nematodes, “-”; in assay [1], “A (Mortality 100%)”; in assay [3], “A (Mortality not less than 90%)”. Moreover, the mortality at 500 ppm (in the assay with Blattella germanica; in assay [2]; in the assay with Musca domestica) was 100% each time.

Regarding `CCOC(=O)N(CCC#N)P(=O)(OCC)SC(C)CC` (centres unmarked) [Compound 20], the Activity entry in the assay with Tetranychus cinnabarinus is reported as “-”; with root-knot nematodes it was “-”; in assay [1], “A (Mortality 100%)”; in assay [3], “A (Mortality not less than 90%)”. Also, the mortality at 500 ppm (in the assay on Blattella germanica; in assay [2]; in the assay with Musca domestica) was 100% each time.

For the compound `CCCSC(=O)N(CCC#N)P(=O)(OCC)SC(C)CC` (centres unmarked) [Compound 19], the Activity result is “-” with Tetranychus cinnabarinus, “-” in the assay on root-knot nematodes, “A (Mortality 100%)” in assay [1] and “A (Mortality not less than 90%)” in assay [3]. In addition, the mortality at 500 ppm with Blattella germanica and in the assay with Musca domestica was 100% each time.

With `CCCSP(=O)(OCC)N(CC#N)C(=O)OCC` (centres unmarked) [Compound 8], the Activity entry is given as “-” in the assay on Tetranychus cinnabarinus; “A (no living larvae)” in assay [4]; “-” in the assay on root-knot nematodes; “A (Mortality 100%)” in assay [1]; “A (Mortality not less than 90%)” in assay [3]. The mortality at 500 ppm (in the assay on Blattella germanica; in assay [2]; in the assay with Musca domestica) was 100% throughout.

Consider `CCOP(=O)(SC(C)CC)N(CC#N)C(=O)SC` (centres unmarked) [Compound 11], for which the Activity result with Tetranychus cinnabarinus is listed as “-”; in the assay with root-knot nematodes, “-”; in assay [1] it was “A (Mortality 100%)”; in assay [3], “A (Mortality not less than 90%)”. In addition, the mortality at 500 ppm (with Blattella germanica; in assay [2]; with Musca domestica) was 100% in each case.

Take `CCCSP(=O)(OC)N(CC#N)C(=O)OC(C)C` (centres unmarked) [Compound 3]: the Activity entry in the assay on Tetranychus cinnabarinus is “-”; in assay [4], “A (no living larvae)”; in the assay with root-knot nematodes, “-”; in assay [1], “A (Mortality 100%)”; in assay [3], “A (Mortality not less than 90%)”. Also, the mortality at 500 ppm (in the assay with Blattella germanica; in assay [2]; in the assay on Musca domestica) was 100% in each case.
